Tested on: A2780 (human ovarian cancer)
Test: Antiproliferative activity against drug-sensitive human A2780 cells

Row | SMILES | IC50 [µM]
1 | CC(C)=CCc1c(O)cc(/C=C/c2cc(O)c3c(c2)C[C@@H]2C(C)(C)[C@H](O)[C@H](O)C[C@@]2(C)O3)cc1O [VEDELIANIN] | 0.13
2 | CC(C)=CCC/C(C)=C/Cc1c(O)cc2c(c1O)C(=O)C[C@@H](c1ccc(O)cc1)O2 [BONANNIONE A] | 24.5
3 | COc1cc(/C=C/c2cc(O)c3c(c2)OC(C)(C)C(O)C3)cc2c1O[C@]1(C)C[C@@H](O)[C@@H](O)C(C)(C)[C@H]1C2 (some centres undefined) [SCHWEINFURTHIN H] | 4.5
4 | COc1cc(/C=C/c2cc(O)c(CC=C(C)C)c(O)c2)cc2c1O[C@]1(C)CC[C@@H](O)C(C)(C)[C@H]1C2 [SCHWEINFURTHIN F] | 5

Reference: ChEMBL document CHEMBL1142962, “Antiproliferative prenylated stilbenes and flavonoids from Macaranga alnifolia from the Madagascar rainforest” (J Nat Prod, 2007)
